Test results published in ChEMBL document CHEMBL1136802, “Receptor-guided alignment-based comparative 3D-QSAR studies of benzylidene malonitrile tyrphostins as EGFR and HER-2 kinase inhibitors” (J Med Chem, 2003).

How the values were obtained:
[1] = biological target: T1, Receptor tyrosine-protein kinase erbB-2 (Homo sapiens, UniProt P04626); assay: Inhibitory activity tested against protein kinase HER-2
[2] = biological target: T2, Epidermal growth factor receptor (Homo sapiens, UniProt P00533); assay: Inhibitory activity against epidermal growth factor receptor (EGFR)
[3] = biological target: T1, Receptor tyrosine-protein kinase erbB-2; assay: Inhibition of HER-2 ErbB2 receptor
[4] = biological target: T2, Epidermal growth factor receptor; assay: Inhibition of epidermal growth factor receptor (EGFR)

T1 sequence (P04626 whole entry): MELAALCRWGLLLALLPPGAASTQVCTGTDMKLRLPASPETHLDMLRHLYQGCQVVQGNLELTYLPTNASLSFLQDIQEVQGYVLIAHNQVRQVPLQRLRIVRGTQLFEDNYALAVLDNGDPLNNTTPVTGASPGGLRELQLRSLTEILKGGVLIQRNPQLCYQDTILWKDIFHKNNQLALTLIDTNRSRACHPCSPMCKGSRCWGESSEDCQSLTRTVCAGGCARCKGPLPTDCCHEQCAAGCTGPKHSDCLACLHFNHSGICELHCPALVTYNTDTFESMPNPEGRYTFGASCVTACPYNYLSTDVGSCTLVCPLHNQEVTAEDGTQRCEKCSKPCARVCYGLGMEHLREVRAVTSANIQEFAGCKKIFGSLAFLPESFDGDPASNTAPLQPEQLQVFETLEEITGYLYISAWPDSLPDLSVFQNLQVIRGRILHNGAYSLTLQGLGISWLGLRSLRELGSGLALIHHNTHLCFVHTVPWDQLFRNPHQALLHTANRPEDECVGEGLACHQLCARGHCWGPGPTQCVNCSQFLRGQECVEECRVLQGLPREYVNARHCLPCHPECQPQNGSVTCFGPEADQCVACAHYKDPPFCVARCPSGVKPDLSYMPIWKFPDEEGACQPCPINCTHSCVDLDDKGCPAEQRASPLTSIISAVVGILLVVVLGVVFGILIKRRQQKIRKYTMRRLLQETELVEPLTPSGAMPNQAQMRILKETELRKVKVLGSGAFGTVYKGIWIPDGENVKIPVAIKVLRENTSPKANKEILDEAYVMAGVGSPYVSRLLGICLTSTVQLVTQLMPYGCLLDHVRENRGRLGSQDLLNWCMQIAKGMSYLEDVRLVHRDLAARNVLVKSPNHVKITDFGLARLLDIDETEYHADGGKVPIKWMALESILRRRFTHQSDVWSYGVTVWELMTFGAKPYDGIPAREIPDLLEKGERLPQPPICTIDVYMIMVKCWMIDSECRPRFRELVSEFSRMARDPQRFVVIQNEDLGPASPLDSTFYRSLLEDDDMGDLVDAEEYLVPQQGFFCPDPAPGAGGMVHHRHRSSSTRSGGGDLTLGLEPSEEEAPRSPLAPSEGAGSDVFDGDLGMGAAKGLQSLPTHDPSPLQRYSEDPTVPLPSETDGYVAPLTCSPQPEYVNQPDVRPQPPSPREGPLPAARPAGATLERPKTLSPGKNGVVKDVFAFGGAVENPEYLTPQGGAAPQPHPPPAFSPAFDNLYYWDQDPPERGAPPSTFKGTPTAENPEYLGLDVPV
T2 sequence (P00533 whole entry): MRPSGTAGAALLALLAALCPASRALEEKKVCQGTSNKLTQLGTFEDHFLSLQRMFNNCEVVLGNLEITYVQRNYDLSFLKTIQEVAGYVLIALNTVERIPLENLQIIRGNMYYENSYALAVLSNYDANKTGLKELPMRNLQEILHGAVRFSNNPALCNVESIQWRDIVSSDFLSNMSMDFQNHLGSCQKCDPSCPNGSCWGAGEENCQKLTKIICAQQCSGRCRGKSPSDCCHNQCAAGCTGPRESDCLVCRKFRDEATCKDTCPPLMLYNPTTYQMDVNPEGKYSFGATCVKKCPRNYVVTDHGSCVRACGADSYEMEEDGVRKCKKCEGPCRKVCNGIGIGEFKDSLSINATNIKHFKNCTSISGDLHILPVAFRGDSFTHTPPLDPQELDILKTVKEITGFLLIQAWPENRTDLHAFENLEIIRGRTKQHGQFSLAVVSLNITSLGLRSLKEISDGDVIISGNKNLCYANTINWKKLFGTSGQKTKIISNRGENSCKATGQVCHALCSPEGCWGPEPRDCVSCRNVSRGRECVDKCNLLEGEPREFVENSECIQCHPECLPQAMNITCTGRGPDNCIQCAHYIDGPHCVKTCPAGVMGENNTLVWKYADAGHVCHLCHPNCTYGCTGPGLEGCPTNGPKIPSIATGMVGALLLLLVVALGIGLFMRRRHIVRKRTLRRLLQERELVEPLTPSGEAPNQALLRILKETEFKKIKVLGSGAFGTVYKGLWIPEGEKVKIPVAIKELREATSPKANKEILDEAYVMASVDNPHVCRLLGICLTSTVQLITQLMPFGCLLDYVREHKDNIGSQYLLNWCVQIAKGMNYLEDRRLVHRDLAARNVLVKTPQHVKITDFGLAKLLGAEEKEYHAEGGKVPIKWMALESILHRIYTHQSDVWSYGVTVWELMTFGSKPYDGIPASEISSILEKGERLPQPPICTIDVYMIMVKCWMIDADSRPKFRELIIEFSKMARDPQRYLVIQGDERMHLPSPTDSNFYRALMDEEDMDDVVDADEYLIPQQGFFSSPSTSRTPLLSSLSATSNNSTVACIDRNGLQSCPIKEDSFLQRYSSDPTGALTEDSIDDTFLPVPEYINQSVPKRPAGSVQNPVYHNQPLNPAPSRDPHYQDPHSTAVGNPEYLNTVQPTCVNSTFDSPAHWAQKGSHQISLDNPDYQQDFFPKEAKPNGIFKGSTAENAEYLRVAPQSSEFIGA

| Structure (SMILES) | IC50 [1] [µM] | IC50 [2] [µM] | other results |
| --- | --- | --- | --- |
| COc1cc(/C=C(\C#N)C(N)=O)cc(CSc2ccccc2NC(C)=O)c1O | 3.31 |  |  |
| COc1cc(/C=C(\C#N)C(N)=O)cc(CSc2cccc3ccccc23)c1O | 4.57 | 1.7 |  |
| COc1cc(/C=C(\C#N)C(N)=O)cc(CSc2ccccn2)c1O | 0.708 |  |  |
| COc1ccc(NC(=O)/C(C#N)=C/c2ccc(O)c(O)c2)c(OC)c1 | 166 |  |  |
| COc1cc(/C=C(\C#N)C(N)=O)cc(CSc2ccccc2C(=O)O)c1O | 0.447 |  |  |
| CC(C)(C)Oc1cc(/C=C(\C#N)C(=N)S)cc(C(C)(C)C)c1O | 1 | 501 |  |
| COc1cc(/C=C(\C#N)C(N)=O)cc(SCCC(=O)O)c1O |  |  | IC50 [3]: 91.2 µM |
| N#C/C(=C\c1ccc(O)c(O)c1)C(=O)NCCc1ccccc1 |  | 0.617 |  |
| COc1cc(/C=C(\C#N)C(N)=O)cc(CSc2nc3ccccc3[nH]2)c1O | 6.17 |  |  |
| COc1cc(C=C(C#N)C#N)cc(C)c1O | 112 |  |  |
| Cc1cc(C)c(C(=O)/C(C#N)=C/c2ccc(O)c(O)c2)c(C)c1 |  | 19.1 |  |
| Cc1cc(C=C(C#N)C#N)cc(O)c1O | 58.9 |  |  |
| CCOc1ccc2sc(SCc3cc(/C=C(\C#N)C(N)=O)cc(OC)c3O)nc2c1 |  |  | IC50 [4]: 166 µM |
| COc1cc(/C=C(\C#N)C(N)=O)cc(CSCc2ccccc2)c1O | 10 |  |  |

Now from value to compound, other results behind:

| IC50 [1] [µM] | IC50 [2] [µM] | Structure (SMILES) | other results |
| --- | --- | --- | --- |
| 2 | 15.8 | COc1cc(/C=C(/C#N)C(N)=O)cc(CSCc2ccc(Cl)cc2)c1O |  |
| 15.1 | 83.2 | COc1cc(/C=C(\C#N)C(N)=O)cc(CSc2nc3cc(Cl)ccc3s2)c1O |  |
| 17.4 |  | COc1cc(C=C(C#N)C#N)cc(CS(=O)(=O)c2ccc(C)cc2)c1O |  |
| 1.02 |  | N#C/C(=C\c1cc(O)c(O)c(CSCc2ccccc2)c1)C(N)=O |  |
| 10 |  | COc1cc(C=C(C#N)C#N)cc(CSc2ccccc2C(=O)O)c1O |  |
| 2.51 |  | COc1cc(C=C(C#N)C#N)cc(CSc2ccccc2)c1O |  |
| 17 |  | N#C/C(=C\c1ccc(O)c(O)c1)C(=O)c1ccc(O)c(O)c1 |  |
| 1.51 |  | COc1cc(/C=C(\C#N)C(N)=O)cc(CSc2nc3ccccc3o2)c1O |  |
| 20.9 | 19.1 | Cc1cc(C)c(NC(=O)/C(C#N)=C/c2ccc(O)c(O)c2)c(C)c1 |  |
| 4.57 | 53.7 | COc1cc(C=C(C#N)C#N)cc(SCC(=O)O)c1O |  |
| 501 |  | N#C/C(=C\c1ccc(O)c(O)c1)C(=O)NCCCCc1ccccc1 |  |
| 331 |  | CCOC(=O)C(Cc1ccccc1)NC(=O)/C(C#N)=C/c1ccc(O)c(O)c1 (centres undefined) |  |
| 12.9 |  | N#C/C(=C\c1ccc(O)c(O)c1)C(=O)c1ccc(F)cc1 |  |
| 0.129 |  | COc1cc(/C=C(\C#N)C(N)=O)cc(CSc2ccccc2)c1O |  |
| 2.88 | 3.02 | N#C/C(=C\c1ccc(O)c(O)c1)C(=O)NCc1ccc(O)cc1 |  |
| 0.251 |  | COc1cc(/C=C(\C#N)C(N)=O)cc(CSCc2ccccc2Cl)c1O |  |
|  | 47.9 | COc1cc(/C=C(\C#N)C(N)=O)cc(SCCCC(=O)O)c1O |  |
| 1.66 |  | COc1cc(/C=C(\C#N)C(N)=O)cc(CSc2ccc(C)cc2)c1O |  |
